Earlier results on 1 compound are cited in publication PMC3480357, “Fragment-Hopping-Based Discovery of a Novel Chemical Series of Proto-Oncogene PIM-1 Kinase Inhibitors” (PLoS ONE, 2012).

SMILES strings stand for the structures.

In one data set the target is PAK1 (Homo sapiens, UniProt Q13153). Further details: method as in PMID 21051136. Conditions: 10 µM; average of two data points; cited from earlier work.
Another data set has as its target T1, FLT3 (Homo sapiens, UniProt P36888).
T1 construct: purchased Invitrogen PV3182
T1 sequence (P36888 564-993 limits assumed): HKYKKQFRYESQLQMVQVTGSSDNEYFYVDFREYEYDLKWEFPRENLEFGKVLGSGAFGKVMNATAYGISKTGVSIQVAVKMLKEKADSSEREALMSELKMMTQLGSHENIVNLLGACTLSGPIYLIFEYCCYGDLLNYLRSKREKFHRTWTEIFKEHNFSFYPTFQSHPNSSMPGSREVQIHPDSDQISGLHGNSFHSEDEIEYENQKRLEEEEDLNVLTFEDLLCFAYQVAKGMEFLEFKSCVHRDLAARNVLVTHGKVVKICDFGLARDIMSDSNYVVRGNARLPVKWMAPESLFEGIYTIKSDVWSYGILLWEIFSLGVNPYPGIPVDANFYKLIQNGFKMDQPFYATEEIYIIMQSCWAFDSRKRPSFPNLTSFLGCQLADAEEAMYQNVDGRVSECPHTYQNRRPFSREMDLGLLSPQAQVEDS
Further details: method as in PMID 21051136. The settings on record: 10 µM; cited from earlier work.

Sequence of PAK1 (Q13153 whole entry): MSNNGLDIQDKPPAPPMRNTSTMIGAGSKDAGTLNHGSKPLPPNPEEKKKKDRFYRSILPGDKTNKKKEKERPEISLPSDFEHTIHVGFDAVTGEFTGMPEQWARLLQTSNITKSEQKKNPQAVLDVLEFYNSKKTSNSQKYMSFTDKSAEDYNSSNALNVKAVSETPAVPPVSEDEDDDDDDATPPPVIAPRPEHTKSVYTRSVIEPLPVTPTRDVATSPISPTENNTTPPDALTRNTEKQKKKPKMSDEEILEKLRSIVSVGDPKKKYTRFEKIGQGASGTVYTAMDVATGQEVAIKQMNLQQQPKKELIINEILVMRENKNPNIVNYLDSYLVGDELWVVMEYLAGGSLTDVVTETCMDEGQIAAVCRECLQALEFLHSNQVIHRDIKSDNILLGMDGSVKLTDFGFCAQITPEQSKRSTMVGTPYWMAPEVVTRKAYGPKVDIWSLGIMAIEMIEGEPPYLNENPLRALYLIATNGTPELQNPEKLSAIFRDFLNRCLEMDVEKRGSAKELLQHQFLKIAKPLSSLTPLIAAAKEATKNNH

For `Oc1ccc(-c2cnc3ccc(NCc4ccc(F)cc4)nn23)cc1` [Compound 1], the “PAK1 percentage of inhibition” value at PAK1 is reported as 7%. For the same compound, at FLT3, the “FLT3 percentage of inhibition” value is on record as “more than 90%”.
